Type in all cases: biochemical
In test [1] the target is T1, human JAK1 (a.a. 837-1142) (Homo sapiens, UniProt P23458).
T1 construct: human JAK1 (a.a. 837-1142); His tag (N); made in house; host or cells: insect cells (baculovirus)
As to the kind of experiment: In vitro JAK kinase assay (HTRF, phosphorylation of a biotinylated peptide), JAK1. The following applies: read-out: JAK1 IC50. The method, boiled down: (§1)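 Kinase reactions ran at room temperature for 1 h with ATP matched per isoform (JAK1 90 μM, JAK2 30 μM, JAK3 3 μM). After an EDTA stop, the phosphorylated biotin-peptide was read by HTRF using Eu-Py20 and SA-APC after 40 min binding.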
In general terms: TR-FRET usually uses a lanthanide donor and a delayed reading to cut background.

Test [2] concerns the target T2, human JAK2 (a.a. 828-1132) (Homo sapiens, UniProt O60674).
T2 construct: JAK2 (a.a. 828-1132); His tag (N); made in house; host or cells: insect cells (baculovirus)
As to the kind of experiment: In vitro JAK kinase assay (HTRF, phosphorylation of a biotinylated peptide), JAK2. The method, boiled down: as §1

Test [3] deals with T3, human JAK3 (a.a. 781-1124) (Homo sapiens, UniProt P52333).
T3 construct: JAK3 (a.a. 781-1124); His tag (N); made in house; host or cells: insect cells (baculovirus)
As to the kind of experiment: In vitro JAK kinase assay (HTRF, phosphorylation of a biotinylated peptide), JAK3. The method, boiled down:
as §1

Test [4] has as its target TYK2 (Homo sapiens, UniProt P29597). As to the kind of experiment: TYK2 kinase inhibition (Table A1).
For test [5], the target named is T4, Recombinant Human Anaplastic Lymphoma Kinase (Homo sapiens, UniProt Q9UM73).
T4 construct: purchased Invitrogen, Carlsbad, Calif
In words: ALK HTRF kinase assay. An outline of the steps: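 Recombinant human ALK with biotinylated peptide substrate; phosphorylation detected by HTRF using Eu-labelled anti-phosphotyrosine antibody and streptavidin-allophycocyanin. IC50 from a sigmoidal fit with Hill slope.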

Setting [6] is: method AA1 (90 μM ATP) or AA2 (1000 μM ATP), not stated per value.
The mark [7] stands for this setting: method AA1 (30 μM ATP) or AA2 (1000 μM ATP), not stated per value.
Where [8] appears, read: method AA1 (3 μM ATP) or AA2 (1000 μM ATP), not stated per value.
[9] abbreviates: compound at 500 nM or 1 mM, 90 μM ATP.
Where [10] appears, read: compound at a concentration of 500 nM or 1 mM (not specified), cells shown as percentage.

This note sets out measurements from US8871753B2, “Macrocyclic compounds and their use as kinase inhibitors” (Incyte Corporation, priority 2008, dated 2014).

Each structure is given as a SMILES string. pIC50: −log10 of the molar value. Structures can show the parent of a compound that is named as a salt. Where two headings read alike, the source gives them in different places. A value given as a limit tells only on which side of the number the result lay.

T3 sequence (P52333 781-1124): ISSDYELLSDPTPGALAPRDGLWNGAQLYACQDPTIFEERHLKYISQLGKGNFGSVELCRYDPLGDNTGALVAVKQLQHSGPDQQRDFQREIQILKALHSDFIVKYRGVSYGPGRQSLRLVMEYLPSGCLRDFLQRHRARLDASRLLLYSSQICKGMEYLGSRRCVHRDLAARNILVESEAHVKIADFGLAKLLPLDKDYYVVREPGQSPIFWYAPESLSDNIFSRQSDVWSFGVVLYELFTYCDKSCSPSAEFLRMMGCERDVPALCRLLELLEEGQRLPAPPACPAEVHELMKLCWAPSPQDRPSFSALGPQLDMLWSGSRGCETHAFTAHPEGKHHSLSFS
T2 sequence (O60674 828-1132): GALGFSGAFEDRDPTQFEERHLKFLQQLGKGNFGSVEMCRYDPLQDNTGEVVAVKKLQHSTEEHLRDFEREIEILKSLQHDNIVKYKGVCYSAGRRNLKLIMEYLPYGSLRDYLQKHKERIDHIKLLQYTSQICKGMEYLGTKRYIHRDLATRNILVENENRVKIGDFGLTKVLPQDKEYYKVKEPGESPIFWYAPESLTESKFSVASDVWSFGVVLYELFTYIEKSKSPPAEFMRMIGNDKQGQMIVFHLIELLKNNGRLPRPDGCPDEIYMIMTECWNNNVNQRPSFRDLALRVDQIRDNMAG
TYK2, sequence (P29597 whole entry): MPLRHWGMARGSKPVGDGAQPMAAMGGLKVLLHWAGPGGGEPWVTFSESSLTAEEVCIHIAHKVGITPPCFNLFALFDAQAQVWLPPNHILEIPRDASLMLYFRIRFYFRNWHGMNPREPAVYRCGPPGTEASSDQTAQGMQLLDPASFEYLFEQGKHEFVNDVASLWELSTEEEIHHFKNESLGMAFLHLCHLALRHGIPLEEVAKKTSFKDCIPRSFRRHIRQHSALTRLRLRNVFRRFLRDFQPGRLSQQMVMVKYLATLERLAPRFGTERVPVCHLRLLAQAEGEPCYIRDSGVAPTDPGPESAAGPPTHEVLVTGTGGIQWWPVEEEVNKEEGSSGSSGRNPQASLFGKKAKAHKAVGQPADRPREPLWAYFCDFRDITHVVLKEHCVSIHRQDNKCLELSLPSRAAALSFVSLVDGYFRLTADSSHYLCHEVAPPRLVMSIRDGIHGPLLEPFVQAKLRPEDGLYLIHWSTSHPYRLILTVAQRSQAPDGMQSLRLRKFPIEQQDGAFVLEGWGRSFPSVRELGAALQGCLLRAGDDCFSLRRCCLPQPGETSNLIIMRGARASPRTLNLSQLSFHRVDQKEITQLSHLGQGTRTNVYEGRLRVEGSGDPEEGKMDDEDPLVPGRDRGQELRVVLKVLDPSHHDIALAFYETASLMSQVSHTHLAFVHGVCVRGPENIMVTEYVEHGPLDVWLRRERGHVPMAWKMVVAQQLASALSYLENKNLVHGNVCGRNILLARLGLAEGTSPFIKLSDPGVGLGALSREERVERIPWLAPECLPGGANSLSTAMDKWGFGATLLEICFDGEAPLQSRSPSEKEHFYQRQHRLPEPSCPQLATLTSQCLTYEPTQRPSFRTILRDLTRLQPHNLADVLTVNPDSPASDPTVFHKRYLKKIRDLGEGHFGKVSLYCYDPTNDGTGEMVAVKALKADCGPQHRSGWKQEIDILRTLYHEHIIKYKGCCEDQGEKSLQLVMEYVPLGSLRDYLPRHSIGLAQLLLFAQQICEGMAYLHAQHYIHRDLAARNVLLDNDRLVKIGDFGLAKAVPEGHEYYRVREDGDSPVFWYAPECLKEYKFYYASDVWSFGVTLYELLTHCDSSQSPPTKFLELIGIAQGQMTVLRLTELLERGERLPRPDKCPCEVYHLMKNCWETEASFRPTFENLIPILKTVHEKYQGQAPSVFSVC
T4 sequence (Q9UM73 19-1620): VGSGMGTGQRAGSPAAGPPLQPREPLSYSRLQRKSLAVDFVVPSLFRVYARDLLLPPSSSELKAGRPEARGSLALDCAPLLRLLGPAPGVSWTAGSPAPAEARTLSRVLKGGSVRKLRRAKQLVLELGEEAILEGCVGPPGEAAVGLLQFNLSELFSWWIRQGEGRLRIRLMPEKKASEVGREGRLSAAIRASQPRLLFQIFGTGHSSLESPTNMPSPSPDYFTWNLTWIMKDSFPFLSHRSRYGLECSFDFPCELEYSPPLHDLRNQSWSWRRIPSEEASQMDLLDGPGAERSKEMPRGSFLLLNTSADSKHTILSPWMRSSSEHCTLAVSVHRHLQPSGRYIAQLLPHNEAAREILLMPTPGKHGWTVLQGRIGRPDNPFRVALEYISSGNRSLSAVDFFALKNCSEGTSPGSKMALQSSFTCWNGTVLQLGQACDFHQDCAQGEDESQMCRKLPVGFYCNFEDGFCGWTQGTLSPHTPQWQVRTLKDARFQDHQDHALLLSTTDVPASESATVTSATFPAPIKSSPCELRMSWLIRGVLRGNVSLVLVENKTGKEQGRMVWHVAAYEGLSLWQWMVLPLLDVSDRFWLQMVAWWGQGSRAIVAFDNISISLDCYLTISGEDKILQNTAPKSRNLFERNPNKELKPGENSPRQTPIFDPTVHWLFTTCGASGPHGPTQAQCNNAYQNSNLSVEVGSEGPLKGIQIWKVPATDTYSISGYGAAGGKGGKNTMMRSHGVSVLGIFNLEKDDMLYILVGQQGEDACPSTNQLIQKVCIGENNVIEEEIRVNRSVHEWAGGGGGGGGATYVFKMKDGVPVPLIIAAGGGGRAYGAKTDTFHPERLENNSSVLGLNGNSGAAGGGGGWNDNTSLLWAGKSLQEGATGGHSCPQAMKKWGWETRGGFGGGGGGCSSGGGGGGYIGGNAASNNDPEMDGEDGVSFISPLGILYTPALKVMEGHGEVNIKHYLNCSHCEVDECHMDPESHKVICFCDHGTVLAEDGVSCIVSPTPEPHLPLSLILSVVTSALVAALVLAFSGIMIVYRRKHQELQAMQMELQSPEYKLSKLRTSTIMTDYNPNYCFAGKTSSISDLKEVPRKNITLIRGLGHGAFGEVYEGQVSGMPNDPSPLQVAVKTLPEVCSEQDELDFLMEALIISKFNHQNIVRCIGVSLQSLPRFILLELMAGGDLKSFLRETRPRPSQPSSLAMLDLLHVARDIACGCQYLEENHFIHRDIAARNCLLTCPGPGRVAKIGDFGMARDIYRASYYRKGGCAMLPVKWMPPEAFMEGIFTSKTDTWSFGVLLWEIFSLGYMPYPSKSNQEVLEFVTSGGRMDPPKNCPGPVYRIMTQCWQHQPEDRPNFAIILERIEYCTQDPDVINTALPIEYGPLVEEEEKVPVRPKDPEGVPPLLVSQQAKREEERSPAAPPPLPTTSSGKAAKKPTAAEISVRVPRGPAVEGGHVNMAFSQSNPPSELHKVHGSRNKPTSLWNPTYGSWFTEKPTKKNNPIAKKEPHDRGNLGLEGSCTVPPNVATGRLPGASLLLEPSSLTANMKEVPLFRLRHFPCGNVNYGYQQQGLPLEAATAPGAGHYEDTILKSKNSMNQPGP
T1 sequence (P23458 849-1154): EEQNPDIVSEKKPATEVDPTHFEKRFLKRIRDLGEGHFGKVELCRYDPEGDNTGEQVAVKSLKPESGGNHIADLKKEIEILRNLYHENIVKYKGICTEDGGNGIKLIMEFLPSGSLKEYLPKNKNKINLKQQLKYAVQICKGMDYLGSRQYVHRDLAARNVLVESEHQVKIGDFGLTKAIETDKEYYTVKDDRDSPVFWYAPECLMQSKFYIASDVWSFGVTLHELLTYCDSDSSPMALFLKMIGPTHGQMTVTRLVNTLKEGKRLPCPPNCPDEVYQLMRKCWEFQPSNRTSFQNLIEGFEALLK

On to `O=C(CC1CCN(S(=O)(=O)c2ccccc2)CC1)Nc1ccc2cc1CCc1cncc(c1)Nc1ncc(Cl)c(n1)N2` [Example A195, N-[6-Chloro-2,4,8,18,22-pentaazatetracyclo[14.3.1.1(3,7).1(9,13)]docosa-1(20),3(22),4,6,9(21),10,12,16,18-nonaen-12-yl]-2-[1-(phenylsulfonyl)piperidin-4-yl]acetamide bis(trifluoroacetate)], for which the negative logarithm of the IC50 (pIC50) (usually the IC50 on a negative log10 scale, so that one unit is a factor of ten) is 8.15 in test [1] (setting [6]), 7.10 in test [2] (setting [7]), below 6.70 in test [3] (setting [8]) and 6.85 in test [4]. The “ALK % of inhibition at a concentration of 500 nM or 1 mM” value (shortened to “ALK % of inhibition”) in test [5] (setting [9]) is 35%.
For `O=C(Nc1ccc2cc1CCc1cccc(c1)Nc1ncc(Cl)c(n1)N2)C1CCCN(C(=O)c2ccccc2)C1` (centres unmarked) [Example A48, 1-Benzoyl-N-[6-chloro-2,4,8,22-tetraazatetracyclo[14.3.1.1(3,7).1(9,13)]docosa-1(20),3(22),4,6,9(21),10,12,16,18-nonaen-12-yl]piperidine-3-carboxamide trifluoroacetate] the same measures were 7.57, 7.89, 7.25, 7.04 and 28%.
For `O=C(Nc1ccccc1)N[C@@H](CO)C(=O)Nc1ccc2cc1CCc1cccc(c1)Nc1ncc(Cl)c(n1)N2` [Example A68, (2S)-2-[(Anilinocarbonyl)amino]-N-[6-chloro-2,4,8,22-tetraazatetracyclo[14.3.1.1(3,7).1(9,13)]docosa-1(20),3(22),4,6,9(21),10,12,16,18-nonaen-12-yl]-3-hydroxypropanamide trifluoroacetate], the pIC50 in test [1] (setting [6]) was 8.70; in test [2] (setting [7]), 8.55; in test [3] (setting [8]) it was 8.39; in test [4], 7.96. Moreover, the “ALK % of inhibition” value in test [5] (setting [9]) is recorded as 46%.
With `Clc1cnc2nc1Nc1cccc(c1)OCCc1cc(cc(-c3cnc(N4CCNCC4)nc3)c1)N2` [Example D31, 6-Chloro-19-(2-piperazin-1-ylpyrimidin-5-yl)-14-oxa-2,4,8,23-tetraazatetracyclo[15.3.1.1(3,7).1(9,13)]tricosa-1(21),3(23),4,6,9(22),10,12,17,19-nonaene tris(trifluoroacetate)], the pIC50 was 9.05 in test [1] (Table D1); 9.70 in test [2] (Table D1); 8.17 in test [3] (Table D1); 8.70 in test [4] (Table D1); 6.98 in test [5] (Table D1, 90 μM ATP).
For `O=C(Nc1ccc2cc1CCc1cccc(c1)Nc1ncc(Cl)c(n1)N2)N[C@H]1CCNC1` [Example B167, N-[6-Chloro-2,4,8,22-tetraazatetracyclo[14.3.1.1(3,7).1(9,13)]docosa-1(20),3(22),4,6,9(21),10,12,16,18-nonaen-12-yl]-N′-[(3S)-pyrrolidin-3-yl]urea bis(trifluoroacetate)], the pIC50 in test [1] (Table B1) is 8.43; in test [2] (Table B1) it was 7.92; in test [3] (Table B1), 7.37; in test [4] (Table B1), 7.52. Further, the “ALK % of inhibition” value in test [5] (setting [10]) was 17%.
For `CN1CCOc2cc(S(=O)(=O)Nc3ccc4cc3CCc3cccc(c3)Nc3ncc(Cl)c(n3)N4)ccc21` [Example B165, N-[6-Chloro-2,4,8,22-tetraazatetracyclo[14.3.1.1(3,7).1(9,13)]docosa-1(20),3(22),4,6,9(21),10,12,16,18-nonaen-12-yl]-4-methyl-3,4-dihydro-2H-1,4-benzoxazine-7-sulfonamide trifluoroacetate] the same measures were 7.89, 8.00, 7.08, 7.70 and 10%.
For `O=C(Nc1ccc2cc1CCc1cccc(c1)Nc1ncc(Cl)c(n1)N2)Nc1ccccc1OC(F)F` [Example B128, N-[6-Chloro-2,4,8,22-tetraazatetracyclo[14.3.1.1(3,7).1(9,13)]docosa-1(20), 3(22),4,6,9(21),10,12,16,18-nonaen-12-yl]-N′-[2-(difluoromethoxy)phenyl]urea trifluoroacetate] the same measures were 9.16, 8.74, 7.89, 8.04 and 32%.
With `Clc1cnc2nc1Nc1cccc(c1)CNCc1cccc(c1)N2` [Example D73, 6-Chloro-2,4,8,15,23-pentaazatetracyclo[15.3.1.1(3,7).1(9,13)]tricosa-1(21),3(23),4,6,9(22),10,12,17,19-nonaene bis(trifluoroacetate)], the pIC50 was 7.08 in test [1] (Table D1); 6.97 in test [2] (Table D1); 7.17 in test [3] (Table D1); 6.72 in test [4] (Table D1); 5.88 in test [5] (Table D1, 90 μM ATP).
Regarding `c1cc2cc(c1)Nc1ccnc(n1)Nc1cccc(c1)CC2` [Example A3, 2,4,8,22-Tetraazatetracyclo[14.3.1.1(3,7).1(9,13)]docosa-1(20),3(22),4,6,9(21),10,12,16,18-nonaene trifluoroacetate], the pIC50 in test [1] (setting [6]) is 7.30; in test [2] (setting [7]), 7.82; in test [3] (setting [8]), 7.35; in test [4] it was 7.26; in test [5] (90 μM ATP), 5.69.
Take `Clc1cnc2nc1Nc1cccc(c1)OCCc1cc(cc(-c3ccnc(N4CCNCC4)c3)c1)N2` [Example D27, 6-Chloro-19-(2-piperazin-1-ylpyridin-4-yl)-14-oxa-2,4,8,23-tetraazatetracyclo[15.3.1.1(3,7).1(9,13)]tricosa-1(21),3(23),4,6,9(22),10,12,17,19-nonaene tris(trifluoroacetate)]: the pIC50 in test [1] (Table D1) is 8.82; in test [2] (Table D1), 9.52; in test [3] (Table D1), 8.46; in test [4] (Table D1), 8.41; in test [5] (Table D1, 90 μM ATP), 7.49.
For `O=C(Nc1ccc2cc1CCc1cccc(c1)Nc1ncc(Cl)c(n1)N2)c1ccccc1` [Example B29, N-[6-Chloro-2,4,8,22-tetraazatetracyclo[14.3.1.1(3,7).1(9,13)]docosa-1(20), 3(22),4,6,9(21),10,12,16,18-nonaen-12-yl]benzamide trifluoroacetate], the pIC50 in test [1] (Table B1) was 9.62; in test [2] (Table B1) it was 9.32; in test [3] (Table B1) it was 8.48; in test [4] (Table B1) it was 8.77; in test [5] (Table B1, cells without percent sign), 7.02.
Consider `O=C(Nc1ccc2cc1CCc1cccc(c1)Nc1ncc(Cl)c(n1)N2)Nc1ccccc1C(F)(F)F` [Example B111, N-[6-Chloro-2,4,8,22-tetraazatetracyclo[14.3.1.1(3,7).1(9,13)]docosa-1(20), 3(22),4,6,9(21),10,12,16,18-nonaen-12-yl]-N′-[2-(trifluoromethyl)phenyl]urea trifluoroacetate], for which the pIC50 is 8.43 in test [1] (Table B1), 8.22 in test [2] (Table B1), 7.68 in test [3] (Table B1) and 8.30 in test [4] (Table B1). For the same compound, in test [5] (setting [10]), the “ALK % of inhibition” value amounted to 14%.
Turning to `O=C(CC1CCN(c2cccc(F)n2)CC1)Nc1ccc2cc1CCc1cncc(c1)Nc1ncc(Cl)c(n1)N2` [Example A181, N-[6-Chloro-2,4,8,18,22-pentaazatetracyclo[14.3.1.1(3,7).1(9,13)]docosa-1(20),3(22),4,6,9(21),10,12,16,18-nonaen-12-yl]-2-[1-(6-fluoropyridin-2-yl)piperidin-4-yl]acetamide tris(trifluoroacetate)], the pIC50 in test [1] (setting [6]) was 8.20; in test [2] (setting [7]), 7.09; in test [3] (setting [8]), below 6.70; in test [4], 7.05. In addition, in test [5] (setting [9]), the “ALK % of inhibition” value amounted to 42%.
